Molecules are shown by their SMILES.

This experiment has as its system PSYLI2 cells. Briefly: PsychLight assays (agonist and antagonist mode). The note with it: FIG. 3C-3E; agonist mode concentration-response, antagonist mode 1 μM. Type of experiment: cell-based. As for the experimental part:
PsychLight Assays. Psychlight assays were performed using a previously published method. Briefly, glass bottom 96-well plates were coated with 50 μg/mL of poly-D-lysine overnight at room temperature and then washed with Dulbecco's PBS. PSYLI2 cells were suspended in DMEM containing 10% FBS with 5% penicillin-streptomycin, plated at a density of 40,000 cells/well, and incubated (37° C., 5% CO2) for 24 h prior to each experiment. Immediately before an experiment, stock solutions of drugs in DMSO were diluted 1:100 in imaging media distributed across an empty 96-well plate (treatment plate) following a randomized plate map. The imaging media consisted of 1×HBSS containing […] and […]. […] Data were from 2 plates with 2-3 wells being analyzed per plate. […]
Once imaging was complete, the images were exported, and analyzed using a custom Python script. […] The mask was generated by calculating the average fluorescence intensity for the entire image and using that value as a threshold. […] The % ΔF/F values for each well were calculated using the following equation: […]
Once imaging was complete, the images were exported, and analyzed using a custom Python script. […] The mask was generated by calculating the average fluorescence intensity for the entire image and using that value as a threshold. […]

In the case of `CCN(CC)C(=O)[C@H]1C=C2c3cccc4ccn(c34)C[C@@H]2N(C)C1` [(−)-JRT], the “hallucinogenic potential (psychLight)” value was “low hallucinogenic potential”.

For the origin of these results see patent US12637464B2, “Tetracyclic compounds for treating brain disorders” (The Regents of the University of California, priority 2021, dated 2026).
